Assay results published in patent publication US12509429B2, “Hydroxybenzamide derivatives and methods of use in treating diabetes” (THE BOARD OF REGENTS OF THE UNIVERSITY OF OKLAHOMA, priority 2022, dated 2025).
pEC50: −log10 of the molar value. Entries after “also recorded” stand apart in the source; their conditions may differ.

How the values were obtained:
Type in all cases: cell-based, rat
[1] = tested on: INS-1 cells; test: Cell viability assay: protection of INS-1 cells from tunicamycin (Tm)-induced loss of viability (CellTiter-Glo, intracellular ATP); details: Rattus norvegicus, INS1
Procedure: INS-1 cells were resuspended in RPMI 1640 medium containing 10% FBS and seeded at 5×10^3 cells/well in a 384-well plate. After overnight 24 h incubation, compounds were added to the wells at the indicated concentration using a pin-transfer robot (PerkinElmer). Tm in RPMI 1640 medium containing 10% FBS was then added at a final concentration of 0.15 μg/mL. After 72 h, the medium was removed and 20 μL of CellTiter-Glo reagent (Promega) was added. Luminescence was measured 10 min later using a Synergy Neo2 plate reader (Biotek).
Hydroxy benzamide (HBA) derivatives were synthesized based on various scaffolds and evaluated for their viability of rat INS-1 β cells in the presence of tunicamycin (Tm), a potent ER stress inducer that inhibits N-linked glycosylation of proteins. The maximum activities and the concentrations that reach half-maximal activity (EC50) of the compounds were evaluated by the degree of increase in viability of INS-1 cells co-treated with the compounds in the presence of Tm compared with Tm treatment alone.

[2] = tested on: INS-1 β cells; test: Western blotting of cleaved caspase-3 and PARP (Tm-induced apoptosis); details: INS-1 cells, Tm 0.3 μg/ml, 24 h, co-treatment at 1 and 5 μM, Western blot
Procedure: INS-1 cells were treated with or without Tm (0.3 μg/ml) in the presence of WO3i at indicated concentrations or DMSO for indicated times. Cleaved caspase-3 and PARP were determined by Western blotting. GADPH was used as a loading control. The data shown are representative of 3 independent experiments.
INS-1 cells cultured in 60-mm dishes were washed with PBS and lysed with lysis buffer (Cell Signaling Technology, Danvers, MA) containing protease and phosphatase inhibitors (Thermo). Aliquots of 20 μg total protein were separated on 10% SDS-PAGE gels (Life Technologies) and transferred to PVDF membranes (Life Technologies). The membranes were probed with primary antibodies followed by the appropriate HRP-conjugated secondary antibodies. Blots were then developed using Pierce ECL Western Blotting Substrate (cat no 32106). The primary antibodies and dilutions used were: cleaved caspase 3 (1:1000, 9661, Cell Signaling Technology, MA, USA), and PARP (1:1000, 9542L, Cell Signaling Technology), and GAPDH (1:1000, SC-32233, Santa Cruz Biotechnology). Secondary antibodies used: goat anti rabbit IgG and goat anti-mouse IgG, 1:5000; Santa Cruz Biotechnology, Santa Cruz, CA).
To determine whether the increase in cell viability following treatment with WO3i was caused by a suppression of apoptotic cell death, levels of cleaved caspase-3 and cleaved PARP were assessed by Western blotting. […] However, upon severe ER stress, caspase 3 undergoes proteolytic cleavage to form the active enzyme, which in turns cleaves PARP, to trigger apoptotic cell death.

[3] = tested on: PERK activation (ATF4 mRNA); test: qRT-PCR of ATF4 mRNA (Tm-induced PERK activation) in INS-1 cells; details: compound 5 μM, Tm 0.5 μg/ml, 4 h and 8 h, normalized to cyclophilin A, listed as WO3i
Procedure: ATF4 mRNA levels by qRT-PCR in INS-1 cells treated for 4 h (A) and 8 h (B) with WO3i at 5 μM in the presence or absence of Tm (0.5 μg/ml). Data are presented as the fold change after normalized to cyclophilin A mRNA.
(§1) Total RNA was extracted from INS-1 cells using TRIzol reagent (Invitrogen, Carlsbad, CA) according to the manufacturer's protocol. 2 μg of total RNA was reverse transcribed using Superscript IV kit (Invitrogen). Real-time PCR was performed with a CFX96 Real-Time PCR detection system (Bio-Rad, CA) using SYBR Select Master Mix (Applied Biosystems, CA).
(§2) Relative mRNA levels were normalized against Cyclophilin A and were determined by ΔΔCt calculated from the difference in ΔCt values between the target gene and Cyclophilin A with and without treatment, based on comparative CT (cycle threshold) method.

[4] = tested on: CHOP mRNA; test: qRT-PCR of Tm-induced CHOP mRNA expression in INS-1 cells; details: compound 5 μM, Tm 0.5 μg/ml, 4 h and 8 h, normalized to cyclophilin A, listed as WO3i
Procedure: CHOP mRNA levels by qRT-PCR in INS-1 cells treated for 4 h (A) and 8 h (B) with WO3i at 5 μM in the presence or absence of Tm (0.5 μg/ml). Data are presented as the fold change after normalized to cyclophilin A mRNA.
as §1, §2

[5] = tested on: ATF6 activation (BiP mRNA); test: qRT-PCR of BiP mRNA (Tm-induced ATF6 activation) in INS-1 cells; details: compound 5 μM, Tm 0.5 μg/ml, 4 h and 8 h, normalized to cyclophilin A, listed as WO3i
Procedure: BiP mRNA levels by qRT-PCR in INS-1 cells treated for 4 h (A) and 8 h (B) with WO3i at 5 μM in the presence or absence of Tm (0.5 μg/ml). Data are presented as the fold change after normalized to cyclophilin A mRNA.
as §1, §2

[6] = tested on: IRE1α activation (Xbp1-s mRNA); test: qRT-PCR of spliced Xbp1 mRNA (Tm-induced IRE1α activation) in INS-1 cells; details: compound 5 μM, Tm 0.5 μg/ml, 4 h and 8 h, normalized to cyclophilin A, listed as WO3i
Procedure: Spliced Xbp1 (Xbp1-s) mRNA levels by qRT-PCR in INS-1 cells treated for 4 h (A) and 8 h (B) with WO3i at 5 μM in the presence or absence of Tm (0.5 μg/ml). Data are presented as the fold change after normalized to cyclophilin A mRNA.
as §1, §2

[7] = tested on: INS-1 β cells; test: Live-cell phase-contrast images of INS-1 cells under ER stress; details: Tm 0.5 μg/mL, compound 5 μM, 24 h, phase-contrast/bright field
Procedure: INS-1 cells were treated with or without Tm (0.5 μg/mL) in the presence of WO3i (5 μM) or DMSO (0.1%) for 24 h, and live-cell phase-contrast images were acquired (magnification 10×).

O=C(NCc1ccc(C(F)(F)F)cc1)c1cccc(O)c1 [Compound 3i, 3-Hydroxy-N-(4-(trifluoromethyl)benzyl)benzamide]
Emax ([1]; % rescue from Tm (0.15 μg/mL)-induced reduction of INS-1 cell viability (intracellular ATP), Tm alone 0%, DMSO without Tm 100%, 72 h, read-out: Maximum % of Protection): 100% | pEC50 ([1]; INS-1 cell viability, Tm 0.15 μg/mL, ten 2-fold serial titration points, GraphPad Prism): 6.72 | Tm-induced apoptosis: cleavage of caspase-3 and PARP [2]: suppresses | Tm-induced apoptosis: cleavage of caspase-3 and PARP ([2]; listed as WO3): almost completely abolished | Tm-induced apoptosis: cleavage of caspase-3 and PARP ([2]; listed as WO3M): suppresses | Tm-induced apoptosis: cleavage of caspase-3 and PARP ([2]; listed as WO3i): suppresses | Tm-induced ATF4 mRNA level (PERK activation) [3]: abolished; also recorded: suppresses | Tm-induced CHOP mRNA expression [4]: markedly diminished; also recorded: suppresses | Tm-induced BiP mRNA level (ATF6 activation) [5]: completely suppressed; also recorded: suppresses | Tm-induced spliced Xbp1 (Xbp1-s) mRNA level (IRE1α activation) [6]: eliminated; also recorded: suppresses | Preservation of INS-1 β cell viability under ER stress (images) ([7]; listed as WO3M): significantly more cells were preserved | Preservation of INS-1 β cell viability under ER stress (images) ([7]; listed as WO3i): preserves the INS-1 β cell viability
